One molecule from publication PMC11272821, “Mechanistic safety assessment via multi-omic characterisation of systemic pathway perturbations following in vivo MAT2A inhibition” (Archives of Toxicology, 2024) can be followed below.

The test system of one series is 86 targets. As to the kind of experiment: Secondary pharmacology profiling against 86 targets (Eurofins). The following applies: BID dosing of 3, 10 or 30 mg/kg for 7 days. The method, then:
(§1) Secondary pharmacology assays were performed at Eurofins using standard experimental techniques against a total of 86 targets across a broad pharmacological space. Assay details along with experimental protocols are described at https://www.eurofinsdiscoveryservices.com. […] Assays measuring substrate turnover or phosphorylation by isolated proteins were used for kinase and enzyme targets, allowing direct determination of the mode of action of the compounds. […] Assays were run in eight points concentration response mode with half log dilutions and IC50, EC50 or Ki (Cheng and Prusoff [1973]) values determined.

Another series has as its target hERG (Homo sapiens, UniProt Q12809). Nature of the series: hERG safety assay. Format: cell-based. The following applies: Full curve. The text has this: (§2) Full curve IC50 (µM) for hERG (human ether-a-go-go-related gene) and the cardiac ion channel panel (sodium and potassium ion channels; Nav1.5, IKs, Kv4.3), along with the L-type Calcium channel (Cav-1.2 Ver; verapamil, DIL; diltiazem), HepG2 C3A 3D spheroids, HepG2 C3A (2D cultures in glucose or galactose media), and THP1 cytotoxicity.

The test system of a further series is THP-1. As to the kind of experiment: THP1 cytotoxicity. It counts as cell-based. The following applies: read-out: THP-1 Cytotox IC50.
Source text: as §2

The nature of the next series: LogD (pH 7.4). It counts as physicochemical.
Another series addresses T1, A2A adenosine receptor (Homo sapiens, UniProt P29274).
T1 construct: Eurofins
Nature of the series: Cell based functional assay. The following applies: mode of action ND. The method, then: as §1

For another series, the target named is T2, M2 muscarinic receptor (Homo sapiens, UniProt P08172).
T2 construct: Eurofins
T2 sequence (P08172 1-466): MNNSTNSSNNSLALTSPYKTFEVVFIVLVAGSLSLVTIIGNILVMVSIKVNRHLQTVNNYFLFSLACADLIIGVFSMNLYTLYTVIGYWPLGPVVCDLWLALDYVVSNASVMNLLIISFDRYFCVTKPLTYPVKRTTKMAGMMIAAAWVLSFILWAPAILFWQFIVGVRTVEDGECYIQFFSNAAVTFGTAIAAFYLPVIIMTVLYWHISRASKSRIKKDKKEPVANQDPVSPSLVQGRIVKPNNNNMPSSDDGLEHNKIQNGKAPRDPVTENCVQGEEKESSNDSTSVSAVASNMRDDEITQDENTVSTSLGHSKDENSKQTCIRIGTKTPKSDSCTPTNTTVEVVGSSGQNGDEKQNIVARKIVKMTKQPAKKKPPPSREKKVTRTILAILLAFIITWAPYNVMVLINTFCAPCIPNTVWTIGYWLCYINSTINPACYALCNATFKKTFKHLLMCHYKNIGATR
As to the kind of experiment: Cell based functional assay. How it is done: as §1

The target of a further series is T3, α1B adrenoceptor (Homo sapiens, UniProt P35368).
T3 construct: Eurofins
T3 sequence (P35368 1-520): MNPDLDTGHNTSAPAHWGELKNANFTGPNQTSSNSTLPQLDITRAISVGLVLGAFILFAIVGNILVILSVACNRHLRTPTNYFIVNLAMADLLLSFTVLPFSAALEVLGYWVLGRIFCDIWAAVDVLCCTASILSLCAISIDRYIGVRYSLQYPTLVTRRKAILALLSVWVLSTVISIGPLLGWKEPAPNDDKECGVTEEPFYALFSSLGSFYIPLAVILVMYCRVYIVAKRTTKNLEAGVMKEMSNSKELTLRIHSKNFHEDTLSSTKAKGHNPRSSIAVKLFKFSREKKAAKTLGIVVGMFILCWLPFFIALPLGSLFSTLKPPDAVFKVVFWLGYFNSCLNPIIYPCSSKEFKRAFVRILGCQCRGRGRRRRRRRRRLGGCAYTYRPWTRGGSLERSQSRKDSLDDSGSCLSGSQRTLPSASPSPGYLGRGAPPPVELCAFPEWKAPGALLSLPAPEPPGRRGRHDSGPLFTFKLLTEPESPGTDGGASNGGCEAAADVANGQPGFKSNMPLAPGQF
As to the kind of experiment: Cell based functional assay. How it is done:
as §1

The next series concerns the target T4, A1 adenosine receptor (Homo sapiens, UniProt P30542).
T4 construct: purchased Eurofins
Nature of the series: Cell based functional assay. Particulars: mode of action ND. The method, then:
as §1

Another series concerns the target T5, 5-HT7 receptor (Homo sapiens, UniProt P34969).
T5 construct: Eurofins
As to the kind of experiment: Cell based functional assay. How it is done:
as §1

For another series, the target named is T6, CB1 cannabinoid receptor (Homo sapiens, UniProt P21554).
T6 construct: purchased Eurofins
T6 sequence (P21554 whole entry): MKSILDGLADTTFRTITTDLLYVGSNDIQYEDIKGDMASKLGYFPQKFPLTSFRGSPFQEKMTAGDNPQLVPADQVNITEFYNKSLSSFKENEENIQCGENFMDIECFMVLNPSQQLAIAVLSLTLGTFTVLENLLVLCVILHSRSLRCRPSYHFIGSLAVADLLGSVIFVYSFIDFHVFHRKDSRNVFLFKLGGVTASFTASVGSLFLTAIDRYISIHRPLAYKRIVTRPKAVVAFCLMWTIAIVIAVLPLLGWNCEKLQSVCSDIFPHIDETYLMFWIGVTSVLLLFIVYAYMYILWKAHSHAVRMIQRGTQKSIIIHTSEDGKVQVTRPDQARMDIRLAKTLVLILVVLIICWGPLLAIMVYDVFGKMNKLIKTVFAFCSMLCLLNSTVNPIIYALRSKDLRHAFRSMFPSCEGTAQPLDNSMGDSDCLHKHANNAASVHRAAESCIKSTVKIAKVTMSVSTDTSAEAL
As to the kind of experiment: Cell based functional assay. The following applies: mode of action ND. The method, then: as §1

The mark [1] stands for this setting: Antagonist, read-out: Functional IC50 or EC50.

T5 sequence (P34969 whole entry): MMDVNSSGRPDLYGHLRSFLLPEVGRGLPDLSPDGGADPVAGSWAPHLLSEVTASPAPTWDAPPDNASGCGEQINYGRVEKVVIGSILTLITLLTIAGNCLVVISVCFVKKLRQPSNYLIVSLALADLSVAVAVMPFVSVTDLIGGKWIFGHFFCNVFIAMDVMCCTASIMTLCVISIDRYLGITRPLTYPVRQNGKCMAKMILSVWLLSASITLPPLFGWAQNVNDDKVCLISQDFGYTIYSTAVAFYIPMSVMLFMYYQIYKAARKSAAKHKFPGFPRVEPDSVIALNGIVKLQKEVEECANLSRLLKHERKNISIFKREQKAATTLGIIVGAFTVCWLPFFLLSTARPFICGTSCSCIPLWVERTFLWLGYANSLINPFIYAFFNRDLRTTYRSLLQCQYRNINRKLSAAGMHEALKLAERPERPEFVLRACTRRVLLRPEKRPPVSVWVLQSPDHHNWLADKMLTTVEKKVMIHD
Sequence of hERG (Q12809 whole entry): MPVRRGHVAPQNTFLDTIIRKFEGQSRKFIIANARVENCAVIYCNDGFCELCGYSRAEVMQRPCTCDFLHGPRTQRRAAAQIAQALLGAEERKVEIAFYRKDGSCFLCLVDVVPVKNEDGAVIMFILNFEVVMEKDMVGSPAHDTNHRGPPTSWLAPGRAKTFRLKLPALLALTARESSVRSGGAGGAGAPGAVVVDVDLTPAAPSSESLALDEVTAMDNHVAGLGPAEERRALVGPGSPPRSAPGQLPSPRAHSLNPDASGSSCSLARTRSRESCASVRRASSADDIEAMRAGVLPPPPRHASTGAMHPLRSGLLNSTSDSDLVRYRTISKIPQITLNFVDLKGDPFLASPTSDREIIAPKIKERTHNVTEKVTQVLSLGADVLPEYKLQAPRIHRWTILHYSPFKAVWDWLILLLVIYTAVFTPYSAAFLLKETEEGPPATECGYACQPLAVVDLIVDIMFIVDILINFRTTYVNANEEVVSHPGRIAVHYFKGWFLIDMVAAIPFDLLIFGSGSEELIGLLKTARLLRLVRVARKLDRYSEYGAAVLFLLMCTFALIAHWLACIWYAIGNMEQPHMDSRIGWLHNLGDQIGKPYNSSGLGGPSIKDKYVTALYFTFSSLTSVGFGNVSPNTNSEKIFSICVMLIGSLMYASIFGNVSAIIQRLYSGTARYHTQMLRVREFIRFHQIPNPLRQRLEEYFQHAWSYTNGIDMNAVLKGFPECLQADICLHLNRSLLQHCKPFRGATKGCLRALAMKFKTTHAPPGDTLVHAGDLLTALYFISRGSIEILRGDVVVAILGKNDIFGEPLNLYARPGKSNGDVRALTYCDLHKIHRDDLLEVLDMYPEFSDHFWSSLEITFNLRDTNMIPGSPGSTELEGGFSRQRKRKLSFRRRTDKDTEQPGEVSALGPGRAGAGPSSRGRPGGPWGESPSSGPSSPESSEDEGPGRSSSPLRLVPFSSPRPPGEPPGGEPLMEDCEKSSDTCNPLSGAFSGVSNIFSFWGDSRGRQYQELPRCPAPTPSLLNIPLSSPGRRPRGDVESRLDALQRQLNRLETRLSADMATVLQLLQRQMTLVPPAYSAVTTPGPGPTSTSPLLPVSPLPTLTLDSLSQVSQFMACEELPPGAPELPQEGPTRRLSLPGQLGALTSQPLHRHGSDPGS
T4 sequence (P30542 whole entry): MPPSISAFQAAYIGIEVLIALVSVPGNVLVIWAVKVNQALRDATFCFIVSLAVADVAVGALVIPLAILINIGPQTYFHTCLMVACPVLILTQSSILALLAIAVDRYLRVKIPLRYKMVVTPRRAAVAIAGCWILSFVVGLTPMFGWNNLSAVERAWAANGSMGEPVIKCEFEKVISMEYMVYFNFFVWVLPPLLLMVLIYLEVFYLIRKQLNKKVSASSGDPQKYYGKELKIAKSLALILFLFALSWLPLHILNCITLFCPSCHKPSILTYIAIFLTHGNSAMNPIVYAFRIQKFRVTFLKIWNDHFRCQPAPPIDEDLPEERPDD
T1 sequence (P29274 whole entry): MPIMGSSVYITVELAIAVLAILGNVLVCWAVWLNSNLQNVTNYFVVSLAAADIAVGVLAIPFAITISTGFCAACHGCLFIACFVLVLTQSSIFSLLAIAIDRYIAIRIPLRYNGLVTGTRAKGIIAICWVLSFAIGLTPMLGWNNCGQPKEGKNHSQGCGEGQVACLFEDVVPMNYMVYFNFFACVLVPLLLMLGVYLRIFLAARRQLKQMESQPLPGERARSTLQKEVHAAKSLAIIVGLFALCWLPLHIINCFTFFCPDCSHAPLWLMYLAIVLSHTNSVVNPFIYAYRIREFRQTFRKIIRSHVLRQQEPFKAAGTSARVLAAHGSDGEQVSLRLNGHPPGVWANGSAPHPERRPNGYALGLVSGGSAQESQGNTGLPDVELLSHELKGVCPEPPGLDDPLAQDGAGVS

As to `Cn1cc2cc(-c3cc4[nH]nc(C5CC5)c4n(-c4ccc(OC(F)F)cc4)c3=O)ccc2n1` [AZ’9567], the “cover of secondary pharmacology targets by plasma free Cmax in rats” value in the series with 86 targets is reported as “none of these targets was covered”. Also, the IC50 against hERG is 33.1 µM; with THP-1, > 50 µM; at M2 muscarinic receptor (setting [1]) it was 17.1 µM; at α1B adrenoceptor (setting [1]), 28.9 µM; at 5-HT7 receptor (setting [1]) it was 2.9 µM. For the same molecule, the “LogD (pH 7.4)” value in the series “LogD (pH 7.4)” turned out to be 3.4. In addition, the “Functional IC50 or EC50” value at A2A adenosine receptor was >100 µM; at A1 adenosine receptor, >30.1 µM; on CB1 cannabinoid receptor it was >100 µM. Besides, the “Pharmacological mode of action” value on M2 muscarinic receptor, on α1B adrenoceptor and at 5-HT7 receptor was “Antagonist” throughout.
